Experimental data reported in US20260158011A1 (Achieve Life Sciences, Inc., priority 2023, published 2026).
Marks after values point to notes of the source that are not given here.

Tested on: adult e-cigarette users
Text: A second measurement consisted of biochemically verified continuous vaping abstinence at any time during treatment, with vaping abstinence at Week 3-6 or Week 6-9 for of cytisinicline treatment vs placebo. 7-day point prevalence rates were compared for vaping abstinence (Week 2 to 12) (FIG. 62). An additional measurement included reduction in daily vaping as measured by cotinine, where cytisinicline treatment vs placebo for a reduction in nicotine vaping using weekly quantitative cotinine levels from Week 2 to Week 12. Safety was assessed by adverse effects and serious adverse effects, considering number, severity, and attribution to study drug.

[1] = by Preferred Term table, 12 Weeks, N = 106, Safety Set
[2] = overall summary, 12 Weeks, N = 106, Safety Set
[3] = possibly, probably or definitely related, 12 Weeks, N = 106, Safety Set

## O=c1cccc2n1C[C@@H]1CNC[C@H]2C1 [cytisine, (−)-Cytisine]
12 Weeks, N = 106, Safety Set
  TEAE Migraine, subjects n: 1 n
  TEAE Musculoskeletal chest pain, subjects %: (0.9) %
  TEAE Musculoskeletal chest pain, subjects n: 1 n
  TEAE Nasal congestion, subjects: 0 n (%)
  TEAE Nasopharyngitis, subjects: 0 n (%)
  TEAE Nausea, subjects %: (4.7) %
  TEAE Nausea, subjects n: 5 n
  TEAE Neck pain, subjects %: (1.9) %
  TEAE Neck pain, subjects n: 2 n
  TEAE Oropharyngeal pain, subjects %: (1.9) %
  TEAE Oropharyngeal pain, subjects n: 2 n
  TEAE Otitis media, subjects: 0 n (%)
  TEAE Outcome Fatal: 0 n (%)/Events
  TEAE Outcome Not recovered/Not resolved, Events: 23 Events
  TEAE Outcome Not recovered/Not resolved, subjects: 14 (13.2) n (%)
  TEAE Outcome Recovered/Resolved with sequelae: 0 n (%)/Events
  TEAE Outcome Recovered/Resolved, Events: 93 Events
  TEAE Outcome Recovered/Resolved, subjects: 47 (44.3) n (%)
  TEAE Outcome Recovering/Resolving, Events: 3 Events
  TEAE Outcome Recovering/Resolving, subjects: 3 (2.8) n (%)
  TEAE Pain in jaw, subjects: 0 n (%)
  TEAE Panic attack, subjects %: (1.9) %
  TEAE Panic attack, subjects n: 2 n
  TEAE Pelvic pain, subjects %: (0.9) %
  TEAE Pelvic pain, subjects n: 1 n
  TEAE Post viral fatigue syndrome, subjects: 0 n (%)
  TEAE Pregnancy, subjects: 0 n (%)
  TEAE Procedural anxiety, subjects %: (0.9) %
  TEAE Procedural anxiety, subjects n: 1 n
  TEAE Pyrexia, subjects: 0 n (%)
  TEAE Relationship Definite, Events: 3 Events
  TEAE Relationship Definite, subjects: 3 (2.8) n (%)
  TEAE Relationship Not Related (first line, total of Not Related and Unlikely), Events: 65 Events
  TEAE Relationship Not Related (first line, total of Not Related and Unlikely), subjects: 38 (35.8) n (%)
  TEAE Relationship Not Related (second line, sub-category), Events: 55 Events
  TEAE Relationship Not Related (second line, sub-category), subjects: 32 (30.2) n (%)
  TEAE Relationship Possible, Events: 29 Events
  TEAE Relationship Possible, subjects: 17 (16.0) n (%)
  TEAE Relationship Probable, Events: 22 Events
  TEAE Relationship Probable, subjects: 16 (15.1) n (%)
  TEAE Relationship Unlikely, Events: 10 Events
  TEAE Relationship Unlikely, subjects: 9 (8.5) n (%)
  TEAE Restless legs syndrome, subjects %: (0.9) %
  TEAE Restless legs syndrome, subjects n: 1 n
  TEAE Sensitive skin, subjects %: (0.9) %
  TEAE Sensitive skin, subjects n: 1 n
  TEAE Severity Mild, Events: 92 Events
  TEAE Severity Mild, subjects: 50 (47.2) n (%)
  TEAE Severity Moderate, Events: 26 Events
  TEAE Severity Moderate, subjects: 16 (15.1) n (%)
  TEAE Severity Severe, Events: 1 Events
  TEAE Severity Severe, subjects: 1 (0.9) n (%)
  TEAE Sinus congestion, subjects %: (0.9) %
  TEAE Sinus congestion, subjects n: 1 n
  TEAE Sinusitis, subjects: 0 n (%)
  TEAE Stress, subjects %: (0.9) %
  TEAE Stress, subjects n: 1 n
  TEAE Thirst, subjects %: (0.9) %
  TEAE Thirst, subjects n: 1 n
  TEAE Tooth extraction, subjects: 0 n (%)
  TEAE Trismus, subjects: 0 n (%)
  TEAE Upper respiratory tract infection, subjects %: (5.7) %
  TEAE Upper respiratory tract infection, subjects n: 6 n
  TEAE Urinary tract infection, subjects %: (0.9) %
  TEAE Urinary tract infection, subjects n: 1 n
  TEAE Vasectomy, subjects %: (0.9) %
  TEAE Vasectomy, subjects n: 1 n
  TEAE Vomiting, subjects %: (0.9) %
  TEAE Vomiting, subjects n: 1 n
  TEAE Wisdom teeth removal, subjects %: (0.9) %
  TEAE Wisdom teeth removal, subjects n: 1 n
Cytisinicline 12 wks (N = 106)
  Adverse event Abnormal dreams, %: 12.3%
  Adverse event Anxiety, %: 9.4%
  Adverse event Fatigue, %: 5.7%
  Adverse event Headache, %: 6.6%
  Adverse event Insomnia, %: 10.4%
  Adverse event Nausea, %: 4.7%
  Adverse event Upper respiratory tract infection, %: 5.7%
  At Least One TEAE: 54 (50.9) n (%)
  Subjects with At Least One TEAE, %: 50.9%
  TEAE relationship: Not Related: 39 (35.8) n (%)
  TEAE relationship: Related: 30 (28.3) n (%)
  Treatment-emergent adverse events: Mild: 50 (47.2) n (%)
  Treatment-emergent adverse events: Moderate: 16 (15.1) n (%)
Cytisinicline 12 wks (N = 106), abnormal dreams
  Treatment-emergent adverse events: Severe: 1 (0.9)* n (%)
[1]
  At Least One TEAE, subjects %: (50.9) %
  At Least One TEAE, subjects n: 54 n
Cytisinicline arm, 12 weeks
  Rate of adverse events: 50.9%
human, in vivo
  Adverse event COVID-19, %: 3 (2.8) %
  TEAE COVID-19, subjects %: (2.8) %
  TEAE COVID-19, subjects n: 3 n
  TEAE Influenza, subjects %: (1.9) %
  TEAE Influenza, subjects n: 2 n
[2]
  At Least One TEAE, Events: 119 Events
  At Least One TEAE, subjects: 54 (50.9) n (%)
[3]
  TEAE Relationship Related, Events: 54 Events
  TEAE Relationship Related, subjects: 30 (28.3) n (%)
